Reference: patent US8163929B2, “Dihydropyridone amides as P2X7 modulators” (Roche Palo Alto LLC, priority 2008, dated 2012)

Target: T1, P2X7 (UniProt Q99572)
T1 sequence (Q99572 1-595): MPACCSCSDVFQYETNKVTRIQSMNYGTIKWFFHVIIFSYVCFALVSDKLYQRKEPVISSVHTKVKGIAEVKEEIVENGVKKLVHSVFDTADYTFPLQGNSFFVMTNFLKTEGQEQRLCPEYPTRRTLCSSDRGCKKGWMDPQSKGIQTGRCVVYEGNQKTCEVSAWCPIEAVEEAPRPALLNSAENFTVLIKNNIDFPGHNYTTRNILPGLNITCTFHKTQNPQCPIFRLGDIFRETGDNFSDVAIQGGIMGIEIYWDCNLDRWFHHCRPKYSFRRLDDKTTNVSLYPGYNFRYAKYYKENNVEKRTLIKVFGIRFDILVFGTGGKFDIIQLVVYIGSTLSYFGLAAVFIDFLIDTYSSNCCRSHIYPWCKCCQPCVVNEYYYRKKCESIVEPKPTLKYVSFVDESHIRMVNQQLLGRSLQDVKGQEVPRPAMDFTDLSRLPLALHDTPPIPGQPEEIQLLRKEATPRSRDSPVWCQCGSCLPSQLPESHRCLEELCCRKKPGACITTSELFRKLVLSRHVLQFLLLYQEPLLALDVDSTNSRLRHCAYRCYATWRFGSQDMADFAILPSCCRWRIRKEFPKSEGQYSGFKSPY
Assay: P2X7 activity of Table 1
Type: cell-based
Conditions: pIC50 values for P2X7
Outline: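 FLIPR calcium flux with fluo-3 in 1321N1 cells expressing human P2X7 and HEK293 cells expressing rat P2X7, in HBSS with 2 mM CaCl2 and 2.5 mM probenecid. Antagonist pre-incubated 20 min at room temperature, then BzATP added (100 μM human, 5 μM rat). Peak response over 5 min normalised to 5 μM ionomycin.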

Compound: Cc1ccc(=O)n(-c2ccc(C)c(NC(=O)C3=CNC(=O)C[C@H]3c3ccc(F)cc3)c2)c1 [Compound 122, (S)-4-(4-Fluoro-phenyl)-6-oxo-1,4,5,6-tetrahydro-pyridine-3-carboxylic acid [2-methyl-5-(5-methyl-2-oxo-2H-pyridin-1-yl)-phenyl]-amide]
- pIC50: 8.26

Compound: CN1C=C(C(=O)Nc2cc(-c3ccn[nH]c3=O)ccc2F)[C@H](c2ccc(F)cc2)CC1=O [Compound 123, (S)-4-(4-Fluoro-phenyl)-1-methyl-6-oxo-1,4,5,6-tetrahydro-pyridine-3-carboxylic acid [2-fluoro-5-(3-oxo-2,3-dihydro-pyridazin-4-yl)-phenyl]-amide]
- pIC50: 7.58

Compound: Cc1ccc(-n2ccc(=O)[nH]c2=O)cc1NC(=O)C1=CN(C)C(=O)C[C@H]1c1ccc(F)cc1 [Compound 124, (S)-4-(4-Fluoro-phenyl)-1-methyl-6-oxo-1,4,5,6-tetrahydro-pyridine-3-carboxylic acid [5-(2,4-dioxo-3,4-dihydro-2H-pyrimidin-1-yl)-2-methyl-phenyl]-amide]
- pIC50: 6.44

Compound: Cc1cc(Cl)c(-n2ncccc2=O)cc1NC(=O)C1=CNC(=O)C[C@H]1c1ccc(F)cc1 [Compound 125, (S)-4-(4-Fluoro-phenyl)-6-oxo-1,4,5,6-tetrahydro-pyridine-3-carboxylic acid [4-chloro-2-methyl-5-(6-oxo-6H-pyridazin-1-yl)-phenyl]-amide]
- pIC50: 7.606

Compound: COC[C@H](O)Cn1nc(-c2ccc(C)c(NC(=O)C3=CN(C)C(=O)C[C@H]3c3ccc(F)cc3)c2)ccc1=O [Compound 126, (S)-4-(4-Fluoro-phenyl)-1-methyl-6-oxo-1,4,5,6-tetrahydro-pyridine-3-carboxylic acid {5-[1-((R)-2-hydroxy-3-methoxy-propyl)-6-oxo-1,6-dihydro-pyridazin-3-yl]-2-methyl-phenyl}-amide]
- pIC50: 7.615

Compound: Cc1cc(Cl)c(-c2ccnn(C)c2=O)cc1NC(=O)C1=CNC(=O)C[C@H]1c1ccc(F)cc1 [Compound 127, (S)-4-(4-Fluoro-phenyl)-6-oxo-1,4,5,6-tetrahydro-pyridine-3-carboxylic acid [4-chloro-2-methyl-5-(2-methyl-3-oxo-2,3-dihydro-pyridazin-4-yl)-phenyl]-amide]
- pIC50: 7.843

Compound: Cc1ccc(-c2ccnn(C)c2=O)cc1NC(=O)C1=CN(CC(=O)N(C)C)C(=O)C[C@H]1c1ccc(F)cc1 [Compound 128, (S)-1-Dimethylcarbamoylmethyl-4-(4-fluoro-phenyl)-6-oxo-1,4,5,6-tetrahydro-pyridine-3-carboxylic acid [2-methyl-5-(2-methyl-3-oxo-2,3-dihydro-pyridazin-4-yl)-phenyl]-amide]
- pIC50: 7.195

Compound: Cc1ccc(-n2cc(C)c(=O)[nH]c2=O)cc1NC(=O)C1=CN(C)C(=O)C[C@H]1c1ccc(F)cc1 [Compound 129, (S)-4-(4-Fluoro-phenyl)-1-methyl-6-oxo-1,4,5,6-tetrahydro-pyridine-3-carboxylic acid [2-methyl-5-(5-methyl-2,4-dioxo-3,4-dihydro-2H-pyrimidin-1-yl)-phenyl]-amide]
- pIC50: 7.945

Compound: Cc1cc(F)c(-c2ccnn(C)c2=O)cc1NC(=O)C1=CN(C)C(=O)C[C@H]1c1ccc(F)cc1 [Compound 130, (S)-4-(4-Fluoro-phenyl)-1-methyl-6-oxo-1,4,5,6-tetrahydro-pyridine-3-carboxylic acid [4-fluoro-2-methyl-5-(2-methyl-3-oxo-2,3-dihydro-pyridazin-4-yl)-phenyl]-amide]
- pIC50: 7.864

Compound: CCn1c(=O)cnn(-c2ccc(C)c(NC(=O)C3=CN(C)C(=O)C[C@H]3c3ccc(F)cc3)c2)c1=O [Compound 131, (S)-4-(4-Fluoro-phenyl)-1-methyl-6-oxo-1,4,5,6-tetrahydro-pyridine-3-carboxylic acid [5-(4-ethyl-3,5-dioxo-4,5-dihydro-3H-[1,2,4]triazin-2-yl)-2-methyl-phenyl]-amide]
- pIC50: 7.42

Compound: Cc1ccc(-n2ccc(=O)n(C)c2=O)cc1NC(=O)C1=CN(C)C(=O)C[C@H]1c1ccc(F)cc1 [Compound 132, (S)-4-(4-Fluoro-phenyl)-1-methyl-6-oxo-1,4,5,6-tetrahydro-pyridine-3-carboxylic acid [2-methyl-5-(3-methyl-2,4-dioxo-3,4-dihydro-2H-pyrimidin-1-yl)-phenyl]-amide]
- pIC50: 6.015

Compound: Cc1ccc(-n2ccc(=O)n(C)c2=O)cc1NC(=O)C1=CNC(=O)C[C@H]1c1ccc(F)cc1 [Compound 133, (S)-4-(4-Fluoro-phenyl)-6-oxo-1,4,5,6-tetrahydro-pyridine-3-carboxylic acid [2-methyl-5-(3-methyl-2,4-dioxo-3,4-dihydro-2H-pyrimidin-1-yl)-phenyl]-amide]
- pIC50: 7.24

Compound: Cc1ccc(-c2ccc(=O)n(CCO)n2)cc1NC(=O)C1=CN(C)C(=O)C[C@H]1c1ccc(F)cc1 [Compound 134, (S)-4-(4-Fluoro-phenyl)-1-methyl-6-oxo-1,4,5,6-tetrahydro-pyridine-3-carboxylic acid {5-[1-(2-hydroxy-ethyl)-6-oxo-1,6-dihydro-pyridazin-3-yl]-2-methyl-phenyl}-amide]
- pIC50: 6.42

Compound: Cc1cnn(-c2ccc(C)c(NC(=O)C3=CNC(=O)C[C@H]3c3ccc(F)cc3)c2)c(=O)c1 [Compound 135, (S)-4-(4-Fluoro-phenyl)-6-oxo-1,4,5,6-tetrahydro-pyridine-3-carboxylic acid [2-methyl-5-(4-methyl-6-oxo-6H-pyridazin-1-yl)-phenyl]-amide]
- pIC50: 7.655

Compound: Cc1cnn(-c2ccc(C)c(NC(=O)C3=CN(C)C(=O)C[C@H]3c3ccc(F)cc3)c2)c(=O)c1 [Compound 136, (S)-4-(4-Fluoro-phenyl)-1-methyl-6-oxo-1,4,5,6-tetrahydro-pyridine-3-carboxylic acid [2-methyl-5-(4-methyl-6-oxo-6H-pyridazin-1-yl)-phenyl]-amide]
- pIC50: 7.515

Compound: Cc1cc(-c2ccc(F)c(NC(=O)C3=CN(C)C(=O)C[C@H]3c3ccc(F)cc3)c2)n[nH]1 [Compound 137, (S)-4-(4-Fluoro-phenyl)-1-methyl-6-oxo-1,4,5,6-tetrahydro-pyridine-3-carboxylic acid [2-fluoro-5-(5-methyl-1H-pyrazin-3-yl)-phenyl]-amide]
- pIC50: 6.39

Compound: Cc1cc(F)c(-c2cccn(C)c2=O)cc1NC(=O)C1=CN(C)C(=O)C[C@H]1c1ccc(F)cc1 [Compound 139, (S)-4-(4-Fluoro-phenyl)-1-methyl-6-oxo-1,4,5,6-tetrahydro-pyridine-3-carboxylic acid [4-fluoro-2-methyl-5-(1-methyl-2-oxo-1,2-dihydro-pyridin-3-yl)-phenyl]-amide]
- pIC50: 7.83

Compound: Cc1ccc(=O)n(-c2ccc(C)c(NC(=O)C3=CN(C)C(=O)C[C@H]3c3ccc(F)cc3)c2)c1 [Compound 140, (S)-4-(4-Fluoro-phenyl)-1-methyl-6-oxo-1,4,5,6-tetrahydro-pyridine-3-carboxylic acid [2-methyl-5-(5-methyl-2-oxo-2H-pyridin-1-yl)-phenyl]-amide]
- pIC50: 7.18

Compound: CN1C=C(C(=O)Nc2cc(-c3ccnn(C)c3=O)ccc2F)[C@H](c2ccc(F)cc2)CC1=O [Compound 141, (S)-4-(4-Fluoro-phenyl)-1-methyl-6-oxo-1,4,5,6-tetrahydro-pyridine-3-carboxylic acid [2-fluoro-5-(2-methyl-3-oxo-2,3-dihydro-pyridazin-4-yl)-phenyl]-amide]
- pIC50: 7.36

Compound: Cn1nccc(-c2ccc(F)c(NC(=O)C3=CNC(=O)C[C@H]3c3ccc(F)cc3)c2)c1=O [Compound 142, (S)-4-(4-Fluoro-phenyl)-6-oxo-1,4,5,6-tetrahydro-pyridine-3-carboxylic acid [2-fluoro-5-(2-methyl-3-oxo-2,3-dihydro-pyridazin-4-yl)-phenyl]-amide]
- pIC50: 8.2

Compound: Cc1cnn(-c2cc(NC(=O)C3=CNC(=O)C[C@H]3c3ccc(F)cc3)c(C)cc2F)c(=O)c1 [Compound 143, (S)-4-(4-Fluoro-phenyl)-6-oxo-1,4,5,6-tetrahydro-pyridine-3-carboxylic acid [4-fluoro-2-methyl-5-(4-methyl-6-oxo-6H-pyridazin-1-yl)-phenyl]-amide]
- pIC50: 7.455

Compound: Cc1cnn(-c2cc(NC(=O)C3=CN(C)C(=O)C[C@H]3c3ccc(F)cc3)c(C)cc2F)c(=O)c1 [Compound 145, (S)-4-(4-Fluoro-phenyl)-1-methyl-6-oxo-1,4,5,6-tetrahydro-pyridine-3-carboxylic acid [4-fluoro-2-methyl-5-(4-methyl-6-oxo-6H-pyridazin-1-yl)-phenyl]-amide]
- pIC50: 7.265

Compound: CN1C=C(C(=O)Nc2cc(-n3ncccc3=O)ccc2F)[C@H](c2ccc(F)cc2)CC1=O [Compound 146, (S)-4-(4-Fluoro-phenyl)-1-methyl-6-oxo-1,4,5,6-tetrahydro-pyridine-3-carboxylic acid [2-fluoro-5-(6-oxo-6H-pyridazin-1-yl)-phenyl]-amide]
- pIC50: 5.74

Compound: Cc1cc(F)c(-c2cc(C)n(CCO)n2)cc1NC(=O)C1=CN(C)C(=O)C[C@H]1c1ccc(F)cc1 [Compound 148, (S)-4-(4-Fluoro-phenyl)-1-methyl-6-oxo-1,4,5,6-tetrahydro-pyridine-3-carboxylic acid {4-fluoro-5-[1-(2-hydroxy-ethyl)-5-methyl-1H-pyrazol-3-yl]-2-methyl-phenyl}-amide]
- pIC50: 7.41
